The values that follow come from publication PMC2705510, “Measurement of Nanomolar Dissociation Constants by Titration Calorimetry and Thermal Shift Assay – Radicicol Binding to Hsp90 and Ethoxzolamide Binding to CAII” (2009).

What is called pKd is the negative decadic logarithm of the Kd, by convention in mol/L. A higher pKd goes with a low Kd.

The target of the test is T1, Hsp90αN (N-terminal domain of human Hsp90α) (Homo sapiens, UniProt P07900).
T1 construct: gene HSP90AA1; N-terminal domain, amino acids 3–241, N-terminal His6 tag
Kind of test: ITC; weak ligand displaced by radicicol (association constant Kb given). It is filed as binding. On the technique in general: Isothermal titration calorimetry measures the heat released or taken up as one component is titrated into another.

pKd: −log10 of the molar value.

Compound `COCCOC(=O)c1ccc(O)cc1O` [compound 1] gave a pKd of 4.30.
